This assay addresses T1, AAK1 (Homo sapiens, UniProt Q2M2I8).
T1 construct: HA; expressed in transfected cells; host or cells: HEK293F
Put plainly: P81 filter plate assay. Format: biochemical. Particulars: full-length human AAK1, Mu2 substrate. The procedure: Compounds were serially diluted into a Labcyte LDV plate (Labcyte, cat#LP-0200) using a Mutiprobe (PerkinElmer) and Biomek FX (Beckman Coulter) so that the highest compound concentration was at 96 μM. Compounds were then pinged (75 nL per well) into a Greiner 384-well reaction plate (Greiner, #781076) using an ECHO 550 Liquid Handler (Labcyte). A total of 12 μl reaction buffer (IMAP buffer containing Tween and DTT, from Molecular Devices) was then added to each well of columns 1 and 13 for the negative controls and 12 μl of 2×AAK1 (0.2 nM full-length human protein, NCBI accession no. NP_055726.2) was added to the remaining wells. Enzyme was then pre-incubated with compound for 10 minutes at RT. Reactions were initiated upon Minitrak (PerkinElmer) addition of 12 μl substrate mix containing 2×Mu2 (0.2 μM, full length human protein), 2× cold ATP (2 μM), and 1.3 μCi of hot ^33P-ATP. Reactions proceeded for one hour at RT. Meanwhile, Millipore 384-well P81 filter plates (Millipore, catalog #MZPHNOW10) were placed on a plate washer (Zoom ZW, from Titertek) and pre-wet with 50 μl 1% phosphoric acid. Kinase reactions were then stopped upon addition of 24 μl of 2% phosphoric acid to each well and the Minitrak was then used to transfer 40 μl from each well into the pre-wet Millipore 384-well P81 filter plates. Reaction mixtures were incubated for 10 minutes at RT in the P81 plates, followed by washing five times with 100 μl/well of 1% phosphoric acid using the Zoom filter washer. The bottom of each filter plate was sealed followed by addition of 20 μl Microscint 40 to each well, sealing the top of the plates with Flashplate cover, and then waiting one hour until reading on the TopCount (PerkinElmer).

In general, IC50 refers to the concentration needed to halve the response being measured. Low values mean higher potency, high ones lower potency.

T1 sequence (Q2M2I8 1-863 isoform Q2M2I8-2): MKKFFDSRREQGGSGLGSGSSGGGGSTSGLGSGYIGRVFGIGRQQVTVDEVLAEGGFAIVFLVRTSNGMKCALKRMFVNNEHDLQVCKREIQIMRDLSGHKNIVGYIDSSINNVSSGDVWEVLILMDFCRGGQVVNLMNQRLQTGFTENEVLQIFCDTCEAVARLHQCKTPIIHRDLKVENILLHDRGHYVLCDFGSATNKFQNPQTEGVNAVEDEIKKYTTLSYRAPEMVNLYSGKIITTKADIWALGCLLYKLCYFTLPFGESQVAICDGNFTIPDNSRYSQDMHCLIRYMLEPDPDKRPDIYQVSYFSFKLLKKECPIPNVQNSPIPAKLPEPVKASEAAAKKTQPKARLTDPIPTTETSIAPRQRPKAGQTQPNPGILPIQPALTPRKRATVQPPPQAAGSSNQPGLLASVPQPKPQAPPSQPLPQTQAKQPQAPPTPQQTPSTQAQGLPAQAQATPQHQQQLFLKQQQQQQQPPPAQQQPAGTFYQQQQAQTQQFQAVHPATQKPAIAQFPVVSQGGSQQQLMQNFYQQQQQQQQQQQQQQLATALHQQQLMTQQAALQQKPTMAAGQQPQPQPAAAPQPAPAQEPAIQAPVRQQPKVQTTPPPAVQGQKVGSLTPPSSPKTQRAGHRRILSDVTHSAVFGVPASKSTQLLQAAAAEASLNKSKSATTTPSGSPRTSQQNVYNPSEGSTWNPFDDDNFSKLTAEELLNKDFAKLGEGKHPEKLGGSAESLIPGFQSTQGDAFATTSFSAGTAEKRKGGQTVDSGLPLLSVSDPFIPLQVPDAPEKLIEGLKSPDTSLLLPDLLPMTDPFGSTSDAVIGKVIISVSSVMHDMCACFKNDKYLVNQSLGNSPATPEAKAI

Consider `CC(C)C[C@H](N)C(=O)N1CCN(c2ccc3ncc(Br)n3n2)CC1` [(S)-2-amino-1-(4-(3-bromoimidazo[1,2-b]pyridazin-6-yl)piperazin-1-yl)-4-methylpentan-1-one], for which the IC50 was not above 10 nM.
The compound `CC(C)C[C@H](N)C(=O)N1CCN(c2ccc3ncc(Cl)n3n2)CC1` [(S)-2-amino-1-(4-(3-chloroimidazo[1,2-b]pyridazin-6-yl)piperazin-1-yl)-4-methylpentan-1-one] yielded an IC50 not above 100 nM.
In turn, `CC(C)C[C@H](N)C(=O)N1CCN(c2ccc3nccn3n2)CC1` [(S)-2-amino-1-(4-(imidazo[1,2-b]pyridazin-6-yl)piperazin-1-yl)-4-methylpentan-1-one] yielded an IC50 not above 1000 nM.
As to `Cc1cnc2ccc(N3CCN(C(=O)[C@@H](N)C(C)C)CC3)nn12` [(S)-2-amino-3-methyl-1-(4-(3-methylimidazo[1,2-b]pyridazin-6-yl)piperazin-1-yl)butan-1-one], the IC50 is not above 10 nM.
For `Cc1cnc2ccc(N3CCN(C(=O)[C@@H](N)CC(C)C)CC3)nn12` [(S)-2-amino-4-methyl-1-(4-(3-methylimidazo[1,2-b]pyridazin-6-yl)piperazin-1-yl)pentan-1-one] the value was not above 100 nM; for `CN(C(=O)CC1CC1)[C@H]1CCN(c2ccc3ncc(-c4cccnc4O)n3n2)C1` [(S)-2-cyclopropyl-N-(1-(3-(2-hydroxypyridin-3-yl)imidazo[1,2-b]pyridazin-6-yl)pyrrolidin-3-yl)-N-methylacetamide], not above 10 nM.
The compound `COCCOC(=O)N(C)[C@H]1CCN(c2ccc3ncc(-c4cccnc4OC)n3n2)C1` [(S)-2-methoxyethyl (1-(3-(2-methoxypyridin-3-yl)imidazo[1,2-b]pyridazin-6-yl)pyrrolidin-3-yl)(methyl)carbamate] showed an IC50 not above 100 nM.
Regarding `CN(C(=O)CC(F)(F)F)[C@H]1CCN(c2ccc3ncc(-c4cccnc4O)n3n2)C1` [(S)-3,3,3-trifluoro-N-(1-(3-(2-hydroxypyridin-3-yl)imidazo[1,2-b]pyridazin-6-yl)pyrrolidin-3-yl)-N-methylpropanamide], the IC50 was not above 10 nM.
For `COCCO[C@H]1CCN(c2ccc3ncc(-c4cc(C)cnc4OC)n3n2)C1` [(S)-3-(2-methoxy-5-methylpyridin-3-yl)-6-(3-(2-methoxyethoxy)pyrrolidin-1-yl)imidazo[1,2-b]pyridazine] the value was not above 1000 nM; for `COCCO[C@H]1CCN(c2ccc3ncc(-c4ccc(C)nc4OC)n3n2)C1` [(S)-3-(2-methoxy-6-methylpyridin-3-yl)-6-(3-(2-methoxyethoxy)pyrrolidin-1-yl)imidazo[1,2-b]pyridazine], not above 100 nM.
On to `COCCO[C@H]1CCN(c2ccc3ncc(-c4cccnc4OC)n3n2)C1` [(S)-6-(3-(2-methoxyethoxy)pyrrolidin-1-yl)-3-(2-methoxypyridin-3-yl)imidazo[1,2-b]pyridazine], for which the IC50 was not above 1000 nM.
`COCC(=O)N(C)[C@H]1CCN(c2ccc3ncc(-c4cccnc4O)n3n2)C1` [(S)-N-(1-(3-(2-hydroxypyridin-3-yl)imidazo[1,2-b]pyridazin-6-yl)pyrrolidin-3-yl)-2-methoxy-N-methylacetamide] displayed an IC50 not above 1000 nM.
Take `CC(C)CC(=O)N(C)[C@H]1CCN(c2ccc3ncc(-c4cccnc4O)n3n2)C1` [(S)-N-(1-(3-(2-hydroxypyridin-3-yl)imidazo[1,2-b]pyridazin-6-yl)pyrrolidin-3-yl)-N,3-dimethylbutanamide]: the IC50 was not above 100 nM.
Consider `CCCC(=O)N(C)[C@H]1CCN(c2ccc3ncc(-c4cccnc4O)n3n2)C1` [(S)-N-(1-(3-(2-hydroxypyridin-3-yl)imidazo[1,2-b]pyridazin-6-yl)pyrrolidin-3-yl)-N-methylbutyramide], for which the IC50 was not above 100 nM.
In turn, `CCCC(=O)N(C)[C@H]1CCN(c2ccc3ncc(-c4cccnc4OC)n3n2)C1` [(S)-N-(1-(3-(2-methoxypyridin-3-yl)imidazo[1,2-b]pyridazin-6-yl)pyrrolidin-3-yl)-N-methylbutyramide] gave an IC50 not above 100 nM.

Source of the values: patent US8969565B2, “Imidazo[1,2-b]pyridazine-based compounds, compositions comprising them, and methods of their use” (Lexicon Pharmaceuticals, Inc., priority 2012, dated 2015).
